# Patent US5215983A, “Carbapenem compounds” (Fujisawa Pharmaceutical Co., Ltd., priority 1989, dated 1993)
# System: P. aeruginosa 2
# Assay: in vitro Antimicrobial Activity (two-fold agar-plate dilution method)
# Assay type: cell-based
# Settings: Pseudomonas aeruginosa, 10^6 viable cells per ml, heart infusion agar, 37° C. for 20 hours, read-out: MIC (minimal inhibitory concentration)
# Description: in vitro Antimicrobial Activity was determined by the two-fold agar-plate dilution method as described blow.
# One loopful of an overnight culture of a test strain in Trypticase-soy broth (10^6 viable cells per ml) was streaked on heart infusion agar (HI-agar) containing graded concentrations of the test compound, and the minimal inhibitory concentration (MIC) was expressed in terms of μg/ml after incubation at 37° C. for 20 hours.
structure (smiles),measurement,value
"C[C@@H](O)[C@H]1C(=O)N2C(C(=O)O)=C(S[C@@H]3CN[C@H](CN4CCCn5c4cc[n+]5C)C3)[C@H](C)[C@H]12 [Example 1-3, (4R,5S,6S)-6-[(1R)-1-hydroxyethyl]-4-methyl-3-[(2S,4S)-2-{1-methyl-4,5,6,7-tetrahydro-4-pyrazolo[1,5-a]pyrimidinio}methylpyrrolidin-4-yl]thio-7-oxo-1-azabicyclo[3.2.0]-hept-2-ene-2-carboxylic acid chloride]",MIC,0.39 µg/mL
